Experimental data reported in ChEMBL document CHEMBL5380808, “Design, Synthesis, and Biological Activity of Marinacarboline Analogues as STAT3 Pathway Inhibitors for Docetaxel-Resistant Triple-Negative Breast Cancer” (J Med Chem, 2023).
Activity calls are given as the source filed them. The calls are words filed in the database; no cut-off is given here.

Assays:
[1] = Synergistic antiproliferative activity against docetaxel-resistant human MDA-MB-231-DTR cells assessed as combination index at 4 uM incubated for 72 hrs in presence of 4 uM of docetaxel by Chou-Talalay method; type: functional
[2] = Induction of cell cycle arrest in docetaxel-resistant human MDA-MB-231-DTR cells assessed as accumulation at S phase at 5 uM incubated for 24 hrs by PI staining based flow cytometry analysis (reference value: 10.56%); type: functional
[3] = Synergistic antiproliferative activity against docetaxel-resistant human MDA-MB-231-DTR cells assessed as combination index at 8 uM incubated for 72 hrs in presence of 1 uM of docetaxel by Chou-Talalay method; type: functional
[4] = Synergistic antiproliferative activity against docetaxel-resistant human MDA-MB-231-DTR cells assessed as combination index at 8 uM incubated for 72 hrs in presence of 4 uM of docetaxel by Chou-Talalay method; type: functional
[5] = test system: MDA-MB-231; experiment: Inhibition of cell invasion in docetaxel-resistant human MDA-MB-231-DTR cells at 3 to 6 uM incubated for 24 hrs by transwell invasion assay; type: functional, cell-based; conditions: dose 3-6 µM
[6] = Synergistic antiproliferative activity against docetaxel-resistant human MDA-MB-231-DTR cells assessed as combination index at 2 uM incubated for 72 hrs in presence of 2 uM of docetaxel by Chou-Talalay method; type: functional
[7] = Antiproliferative activity against […] cells assessed as reduction in cell viability incubated for 72 hrs by MTT assay; type: functional, cell-based
[8] = test system: MDA-MB-231; experiment: Antiproliferative activity against human MDA-MB-231 cells assessed as reduction in cell viability incubated for 72 hrs by MTT assay; type: functional, cell-based; conditions: MDA-MB-231, 72 h
[9] = Induction of cell cycle arrest in docetaxel-resistant human MDA-MB-231-DTR cells assessed as accumulation at S phase at 5 uM incubated for 36 hrs by PI staining based flow cytometry analysis (reference value: 10.56%); type: functional
[10] = test system: MDA-MB-231; experiment: Antiproliferative activity against human MDA-MB-231 cells assessed as reduction in cell viability incubated for 72 hrs by sulforhodamine B assay; type: functional, cell-based; conditions: MDA-MB-231, 72 h
[11] = test system: MDA-MB-231; experiment: Antitumor activity against docetaxel-resistant human MDA-MB-231-DTR cells xenografted in BALB/c mouse assessed as reduction in tumor volume at 10 mg/kg, ip daily for 12 days in presence of docetaxel; type: functional, organism-based; conditions: time 12.0 day
[12] = Synergistic antiproliferative activity against docetaxel-resistant human MDA-MB-231-DTR cells assessed as combination index at 2 uM incubated for 72 hrs in presence of 1 uM of docetaxel by Chou-Talalay method; type: functional
[13] = test system: MDA-MB-231; experiment: Antitumor activity against docetaxel-resistant human MDA-MB-231-DTR cells xenografted in BALB/c mouse assessed as reduction in tumor weight at 10 mg/kg, ip daily for 12 days in presence of docetaxel; type: functional, organism-based; conditions: time 12.0 day
[14] = Induction of cell cycle arrest in docetaxel-resistant human MDA-MB-231-DTR cells assessed as accumulation at S phase at 10 uM incubated for 36 hrs by PI staining based flow cytometry analysis (reference value: 11.57%); type: functional
[15] = test system: MDA-MB-231; experiment: Inhibition of cell migration in docetaxel-resistant human MDA-MB-231-DTR cells at 3 to 6 uM incubated for 24 hrs by microscopy based wound healing assay; type: functional; conditions: dose 3-6 µM
[16] = test system: MDA-MB-231; experiment: Induction of apoptosis in docetaxel-resistant human MDA-MB-231-DTR cells assessed as upregulation of cleaved-caspase-9 expression level at 2.5 to 10 uM incubated for 48 hrs by Western blot analysis; type: functional, cell-based; conditions: dose 2.5-10 µM
[17] = test system: MDA-MB-231; experiment: Induction of apoptosis in docetaxel-resistant human MDA-MB-231-DTR cells assessed as upregulation of cleaved-caspase-3 expression level at 2.5 to 10 uM incubated for 48 hrs by Western blot analysis; type: functional, cell-based; conditions: dose 2.5-10 µM
[18] = test system: MDA-MB-231; experiment: Antitumor activity against docetaxel-resistant human MDA-MB-231-DTR cells xenografted in BALB/c mouse assessed as downregulation of vimentin level in tumor tissue at 10 mg/kg, ip daily for 12 days by Immunohistochemical analysis; type: functional, organism-based; conditions: time 12.0 day
[19] = test system: MDA-MB-231; experiment: Induction of cell cycle arrest at G2/M phase in docetaxel-resistant human MDA-MB-231-DTR cells assessed as upregulation of Chk1 phosphorylation at S345 at 2.5 to 10 uM incubated for 36 hrs by Western blot analysis; type: functional, cell-based; conditions: dose 2.5-10 µM
[20] = target: Signal transducer and activator of transcription 3 (Homo sapiens) (UniProt P40763); experiment: Inhibition of STAT3 phosphorylation at Y705 residue in human MDA-MB-231 cells assessed as decrease in phosphorylated STAT3 level at 5 uM incubated for 24 hrs by Western blot analysis; type: cell-based
[21] = test system: MDA-MB-231; experiment: Induction of apoptosis in docetaxel-resistant human MDA-MB-231-DTR cells assessed as downregulation of Bcl2 expression level at 2.5 to 10 uM incubated for 48 hrs by Western blot analysis; type: functional, cell-based; conditions: dose 2.5-10 µM
[22] = Induction of cell cycle arrest in docetaxel-resistant human MDA-MB-231-DTR cells assessed as accumulation at G2/M phase at 10 uM incubated for 36 hrs by PI staining based flow cytometry analysis (reference value: 13.16%); type: functional
[23] = Induction of apoptosis in docetaxel-resistant human MDA-MB-231-DTR cells assessed as increase in total cell death at 5 uM incubated for 48 hrs by Annexin V-FITC and PI staining based flow cytometry; type: functional
[24] = Induction of cell cycle arrest in docetaxel-resistant human MDA-MB-231-DTR cells assessed as accumulation at G0/G1 phase at 5 uM incubated for 36 hrs by PI staining based flow cytometry analysis (reference value: 75.49%); type: functional
[25] = Induction of cell cycle arrest in docetaxel-resistant human MDA-MB-231-DTR cells assessed as accumulation at G0/G1 phase at 5 uM incubated for 12 hrs by PI staining based flow cytometry analysis (reference value: 75.49%); type: functional
[26] = Induction of cell cycle arrest in docetaxel-resistant human MDA-MB-231-DTR cells assessed as accumulation at G0/G1 phase at 5 uM incubated for 48 hrs by PI staining based flow cytometry analysis (reference value: 75.49%); type: functional
[27] = Induction of cell cycle arrest in docetaxel-resistant human MDA-MB-231-DTR cells assessed as accumulation at subG1 phase at 5 uM incubated for 12 hrs by PI staining based flow cytometry analysis (reference value: 0.41%); type: functional
[28] = Induction of cell cycle arrest in docetaxel-resistant human MDA-MB-231-DTR cells assessed as accumulation at G0/G1 phase at 5 uM incubated for 24 hrs by PI staining based flow cytometry analysis (reference value: 75.49%); type: functional
[29] = test system: MDA-MB-231; experiment: Induction of cell cycle arrest at G2/M phase in docetaxel-resistant human MDA-MB-231-DTR cells assessed as downregulation of c-Myc expression level at 2.5 to 10 uM incubated for 36 hrs by Western blot analysis; type: functional, cell-based; conditions: dose 2.5-10 µM

Signal transducer and activator of transcription 3 (Homo sapiens), sequence (P40763 whole entry): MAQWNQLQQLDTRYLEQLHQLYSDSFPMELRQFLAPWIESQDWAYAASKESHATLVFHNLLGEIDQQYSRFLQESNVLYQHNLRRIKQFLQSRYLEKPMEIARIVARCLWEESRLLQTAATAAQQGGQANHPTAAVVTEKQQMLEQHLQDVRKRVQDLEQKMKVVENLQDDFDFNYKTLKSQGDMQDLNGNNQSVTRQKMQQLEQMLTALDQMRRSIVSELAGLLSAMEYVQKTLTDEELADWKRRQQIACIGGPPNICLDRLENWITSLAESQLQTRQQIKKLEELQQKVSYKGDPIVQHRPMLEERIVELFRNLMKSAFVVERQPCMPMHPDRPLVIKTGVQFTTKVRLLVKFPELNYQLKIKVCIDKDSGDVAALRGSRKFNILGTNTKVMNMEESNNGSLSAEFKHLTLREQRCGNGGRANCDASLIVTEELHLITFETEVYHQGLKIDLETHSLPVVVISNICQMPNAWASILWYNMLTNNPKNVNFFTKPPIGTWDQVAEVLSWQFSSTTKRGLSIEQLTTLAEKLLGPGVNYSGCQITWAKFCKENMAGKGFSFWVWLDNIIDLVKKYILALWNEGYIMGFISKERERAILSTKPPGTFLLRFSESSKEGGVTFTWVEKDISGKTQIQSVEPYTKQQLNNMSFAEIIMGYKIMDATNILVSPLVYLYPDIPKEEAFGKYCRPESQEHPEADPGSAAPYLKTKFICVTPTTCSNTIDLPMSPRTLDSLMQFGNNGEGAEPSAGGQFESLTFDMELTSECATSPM

Work on `O=C(NCCc1c[nH]c2ccccc12)c1cc2c([nH]c3ccccc32)c(C(=O)c2ccc(Br)cc2)n1` yielded a CI [1] of 0.37, an Activity [2] of 18.28% and a CI [3] of 0.66. For the same molecule, the CI [4] was 0.32, the inhibition [5] was “Dose-Dependent Effect” and the CI [6] was 0.23. For the same molecule, the IC50 [7] was 3.24 µM, the IC50 [8] was 2.98 µM and the Activity [9] was 14.21%. For the same molecule, the IC50 [10] was 3.11 µM, the Activity [11] was “Active” and the CI [12] was 0.26. For the same molecule, the Activity [13] was “Active”, the Activity [14] was 18.42% and the inhibition [15] was “Dose-Dependent Effect”. For the same molecule, the Activity [16] was “Active”, the Activity [17] was “Active” and the Activity [18] was “Active”. The Activity [19] was “Active”, the inhibition [20] was “Active” and the Activity [21] was “Active”. The Activity [22] was 29.72%, the Activity [23] was 18.79% and the Activity [24] was 55.56%. For the same molecule, the Activity [25] was 88.84%, the Activity [26] was 48.08% and the Activity [27] was 0.82%. The Activity [28] was 82.18% and the Activity [29] was “Active”.
